Source: patent US6358885B1, “Substituted phenylheterocyclic herbicides” (Mississippi State University, priority 1992, dated 2002)

Columns and labels:
[1] = system: corn; test: Test C preemergence/postemergence greenhouse plant response rating 0 to 100; assay type: in vivo, Zea mays; details: POSTEMERGENCE
Method in brief: (§1)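 Compounds in non-phytotoxic solvent applied preemergence to sandy loam one day after planting, postemergence at the 1–4 leaf stage, or to ~2.5 cm floodwater over silt loam.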

[2] = system: lambsquarters; test: as above; assay type: in vivo, Chenopodium album; details: POSTEMERGENCE
Method in brief: as §1

[3] = system: barley; test: as above; assay type: in vivo, Hordeum vulgare; details: POSTEMERGENCE
Method in brief: as §1

[4] = system: soybean; test: Test B preemergence/postemergence greenhouse plant response rating 0 to 10; assay type: in vivo, Glycine max; details: 0 to 10 scale
Method in brief: (§2)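 Test chemicals were sprayed onto freshly planted seed and, concurrently, onto young plants between the one and four leaf stage. After a twelve- to sixteen-day greenhouse period, each species was visually compared with untreated controls.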

[5] = system: cotton; test: as above; assay type: in vivo, Gossypium hirsutum; details: 0 to 10 scale
Method in brief: as §2

[6] = system: velvetleaf; test: Test C preemergence/postemergence greenhouse plant response rating 0 to 100; assay type: in vivo, Abutilon theophrasti; details: POSTEMERGENCE
Method in brief: as §1

[7] = system: cheatgrass; test: Test B preemergence/postemergence greenhouse plant response rating 0 to 10; assay type: in vivo, Bromus secalinus; details: 0 to 10 scale
Method in brief: as §2

[8] = system: wild buckwheat; test: as above; assay type: in vivo, Polygonum convolvulus; details: 0 to 10 scale
Method in brief: as §2

[9] = system: velvetleaf; test: as above; assay type: in vivo, Abutilon theophrasti; details: 0 to 10 scale
Method in brief: as §2

[10] = system: lambsquarters; test: as above; assay type: in vivo, Chenopodium album; details: 0 to 10 scale
Method in brief: as §2

[11] = system: rape; test: Test C preemergence/postemergence greenhouse plant response rating 0 to 100; assay type: in vivo, Brassica napus; details: POSTEMERGENCE
Method in brief: as §1

[12] = system: umbrella sedge; test: Test C flood test plant response rating 0 to 100; assay type: in vivo, Cyperus difformis
Method in brief: as §1

[13] = system: morningglory; test: Test C preemergence/postemergence greenhouse plant response rating 0 to 100; assay type: in vivo, Ipomoea hederacea; details: POSTEMERGENCE
Method in brief: as §1

[14] = system: sorghum; test: as above; assay type: in vivo, Sorghum bicolor; details: POSTEMERGENCE
Method in brief: as §1

[15] = system: soybean; test: as above; assay type: in vivo, Glycine max; details: POSTEMERGENCE
Method in brief: as §1

[16] = system: rice; test: Test B preemergence/postemergence greenhouse plant response rating 0 to 10; assay type: in vivo, Oryza sativa; details: 0 to 10 scale
Method in brief: as §2

[17] = system: sugar beet; test: Test C preemergence/postemergence greenhouse plant response rating 0 to 100; assay type: in vivo, Beta vulgaris; details: POSTEMERGENCE
Method in brief: as §1

[18] = system: purple nutsedge; test: Test B preemergence/postemergence greenhouse plant response rating 0 to 10; assay type: in vivo, Cyperus rotundus; details: Rate 50 g/ha, 0 to 10 scale
Method in brief: as §2

For C#CCN1C(=O)COc2cc(F)c(-c3nn4c(c3Cl)CCCC4)cc21 [Compound 34], the “Plant response rating, Corn” value ([1]; 62 g/ha, 0 to 100 scale) was 50, the “Plant response rating (0 to 100), Corn” value ([1]; Rate 1 g/ha) was 20 and the “Plant response rating (0 to 100), Corn” value ([1]; Rate 4 g/ha) was 30. The “Plant response rating (0 to 100), Corn” value ([1]; Rate 16 g/ha) was 40, the “Plant response rating Lambsquarters” value ([2]; 62 g/ha, 0 to 100 scale) was 100 and the “Plant response rating (0 to 100), Lambsquarters” value ([2]; Rate 1 g/ha) was 80. The “Plant response rating (0 to 100), Lambsquarters” value ([2]; Rate 4 g/ha) was 100, the “Plant response rating (0 to 100), Lambsquarters” value ([2]; Rate 16 g/ha) was 100 and the “Plant response rating Barley Igri” value ([3]; 62 g/ha, 0 to 100 scale) was 40. The “Plant response rating (0 to 100), Barley Igri” value ([3]; Rate 1 g/ha) was 20, the “Plant response rating (0 to 100), Barley Igri” value ([3]; Rate 4 g/ha) was 30 and the “Plant response rating (0 to 100), Barley Igri” value ([3]; Rate 16 g/ha) was 40. The “Plant response rating, Soybean” value ([4]; POSTEMERGENCE, Rate 10 g/ha) was 8, the “Plant response rating, Soybean” value ([4]; POSTEMERGENCE, Rate 50 g/ha) was 10 and the “Plant response rating, Soybean” value ([4]; PREEMERGENCE, Rate 50 g/ha) was 6. For the same compound, the “Plant response rating, Cotton” value ([5]; POSTEMERGENCE, Rate 10 g/ha) was 10, the “Plant response rating, Cotton” value ([5]; POSTEMERGENCE, Rate 50 g/ha) was 10 and the “Plant response rating, Cotton” value ([5]; PREEMERGENCE, Rate 10 g/ha) was 0. For the same compound, the “Plant response rating, Cotton” value ([5]; PREEMERGENCE, Rate 50 g/ha) was 0, the “Plant response rating, Velvetleaf” value ([6]; 62 g/ha, 0 to 100 scale) was 100 and the “Plant response rating (0 to 100), Velvetleaf” value ([6]; Rate 1 g/ha) was 100. The “Plant response rating (0 to 100), Velvetleaf” value ([6]; Rate 4 g/ha) was 100, the “Plant response rating (0 to 100), Velvetleaf” value ([6]; Rate 16 g/ha) was 100 and the “Plant response rating, Cheatgrass” value ([7]; POSTEMERGENCE, Rate 10 g/ha) was 4. For the same compound, the “Plant response rating, Cheatgrass” value ([7]; POSTEMERGENCE, Rate 50 g/ha) was 5, the “Plant response rating, Cheatgrass” value ([7]; PREEMERGENCE, Rate 10 g/ha) was 3 and the “Plant response rating, Cheatgrass” value ([7]; PREEMERGENCE, Rate 50 g/ha) was 6. For the same compound, the “Plant response rating, Wild buckwheat” value ([8]; POSTEMERGENCE, Rate 10 g/ha) was 10, the “Plant response rating, Wild buckwheat” value ([8]; POSTEMERGENCE, Rate 50 g/ha) was 10 and the “Plant response rating, Wild buckwheat” value ([8]; PREEMERGENCE, Rate 50 g/ha) was 8. For the same compound, the “Plant response rating, Velvetleaf” value ([9]; POSTEMERGENCE, Rate 10 g/ha) was 10, the “Plant response rating, Velvetleaf” value ([9]; POSTEMERGENCE, Rate 50 g/ha) was 1 and the “Plant response rating, Velvetleaf” value ([9]; PREEMERGENCE, Rate 50 g/ha) was 10. The “Plant response rating, Lambsquarter” value ([10]; POSTEMERGENCE, Rate 10 g/ha) was 9, the “Plant response rating, Lambsquarter” value ([10]; POSTEMERGENCE, Rate 50 g/ha) was 10 and the “Plant response rating, Lambsquarter” value ([10]; PREEMERGENCE, Rate 50 g/ha) was 10. The “Plant response rating, Rape” value ([11]; 62 g/ha, 0 to 100 scale) was 100, the “Plant response rating (0 to 100), Rape” value ([11]; Rate 1 g/ha) was 85 and the “Plant response rating (0 to 100), Rape” value ([11]; Rate 4 g/ha) was 100. The “Plant response rating (0 to 100), Rape” value ([11]; Rate 16 g/ha) was 100, the “Plant response rating (0 to 100), Umbrella sedge” value ([12]; POSTEMERGENCE section, flood test, Rate 1 g/ha) was 0 and the “Plant response rating (0 to 100), Umbrella sedge” value ([12]; POSTEMERGENCE section, flood test, Rate 4 g/ha) was 0. For the same compound, the “Plant response rating (0 to 100), Umbrella sedge” value ([12]; Rate 16 g/ha, under POSTEMERGENCE head (flood test species)) was 60, the “Plant response rating Umbrella sedge” value ([12]; flood test species listed under POSTEMERGENCE, 62 g/ha, 0 to 100 scale) was 80 and the “Plant response rating, Morningglory” value ([13]; 62 g/ha, 0 to 100 scale) was 100. The “Plant response rating (0 to 100), Morningglory” value ([13]; Rate 1 g/ha) was 60, the “Plant response rating (0 to 100), Morningglory” value ([13]; Rate 4 g/ha) was 100 and the “Plant response rating (0 to 100), Morningglory” value ([13]; Rate 16 g/ha) was 100. For the same compound, the “Plant response rating, Sorghum” value ([14]; 62 g/ha, 0 to 100 scale) was 70, the “Plant response rating (0 to 100), Sorghum” value ([14]; Rate 1 g/ha) was 30 and the “Plant response rating (0 to 100), Sorghum” value ([14]; Rate 4 g/ha) was 40. For the same compound, the “Plant response rating (0 to 100), Sorghum” value ([14]; Rate 16 g/ha) was 50, the “Plant response rating, Soybean” value ([15]; 62 g/ha, 0 to 100 scale) was 100 and the “Plant response rating (0 to 100), Soybean” value ([15]; Rate 1 g/ha) was 50. For the same compound, the “Plant response rating (0 to 100), Soybean” value ([15]; Rate 4 g/ha) was 70, the “Plant response rating (0 to 100), Soybean” value ([15]; Rate 16 g/ha) was 100 and the “Plant response rating, Rice” value ([16]; POSTEMERGENCE, Rate 10 g/ha) was 5. The “Plant response rating, Rice” value ([16]; POSTEMERGENCE, Rate 50 g/ha) was 5, the “Plant response rating, Rice” value ([16]; PREEMERGENCE, Rate 50 g/ha) was 2 and the “Plant response rating, Sugar beet” value ([17]; 62 g/ha, 0 to 100 scale) was 100. For the same compound, the “Plant response rating (0 to 100), Sugar beet” value ([17]; Rate 4 g/ha) was 80, the “Plant response rating (0 to 100), Sugar beet” value ([17]; Rate 16 g/ha) was 100 and the “Plant response rating, Nutsedge” value ([18]; POSTEMERGENCE) was 0. The “Plant response rating, Nutsedge” value ([18]; PREEMERGENCE) was 0.
